Reference: patent US6939541B2, “Cloning, overexpression and therapeutic use of bioactive histidine ammonia lyase” (priority 2000, dated 2005)

Columns and labels:
[1] = target: Corynebacteriaceae histidine ammonia lyase (HAL) (Glutamicibacter halophytocola, UniProt A0A5B8IKQ6, DEL117-117/DEL409-409/N172D/R434P/T116S); assay: biochemical; assay type: biochemical, bacterium of the family Corynebacteriaceae; conditions: for IC50: inhibition not complete, read-out: concentration required to reduce the activity by half
Chain of Corynebacteriaceae histidine ammonia lyase (HAL) (A0A5B8IKQ6 entry or part of it T116S/DEL117-117/N172D/DEL409-409/R434P): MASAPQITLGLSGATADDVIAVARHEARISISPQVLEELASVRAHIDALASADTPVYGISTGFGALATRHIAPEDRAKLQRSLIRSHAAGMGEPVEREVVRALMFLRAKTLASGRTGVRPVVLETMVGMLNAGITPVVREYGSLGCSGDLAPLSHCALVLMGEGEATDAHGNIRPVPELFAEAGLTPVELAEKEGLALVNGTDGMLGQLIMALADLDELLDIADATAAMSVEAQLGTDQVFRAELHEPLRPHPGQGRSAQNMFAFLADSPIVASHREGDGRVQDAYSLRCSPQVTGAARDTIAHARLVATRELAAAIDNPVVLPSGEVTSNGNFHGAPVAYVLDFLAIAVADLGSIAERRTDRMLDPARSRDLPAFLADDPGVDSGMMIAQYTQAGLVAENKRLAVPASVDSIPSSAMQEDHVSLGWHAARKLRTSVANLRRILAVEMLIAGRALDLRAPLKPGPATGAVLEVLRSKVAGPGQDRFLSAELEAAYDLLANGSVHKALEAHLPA

[2] = target: T1, Streptomyces griseus histidine ammonia lyase (Streptomyces griseus, UniProt P24221); conditions: Wu et al.; cited from earlier work
T1 sequence (P24221 whole entry): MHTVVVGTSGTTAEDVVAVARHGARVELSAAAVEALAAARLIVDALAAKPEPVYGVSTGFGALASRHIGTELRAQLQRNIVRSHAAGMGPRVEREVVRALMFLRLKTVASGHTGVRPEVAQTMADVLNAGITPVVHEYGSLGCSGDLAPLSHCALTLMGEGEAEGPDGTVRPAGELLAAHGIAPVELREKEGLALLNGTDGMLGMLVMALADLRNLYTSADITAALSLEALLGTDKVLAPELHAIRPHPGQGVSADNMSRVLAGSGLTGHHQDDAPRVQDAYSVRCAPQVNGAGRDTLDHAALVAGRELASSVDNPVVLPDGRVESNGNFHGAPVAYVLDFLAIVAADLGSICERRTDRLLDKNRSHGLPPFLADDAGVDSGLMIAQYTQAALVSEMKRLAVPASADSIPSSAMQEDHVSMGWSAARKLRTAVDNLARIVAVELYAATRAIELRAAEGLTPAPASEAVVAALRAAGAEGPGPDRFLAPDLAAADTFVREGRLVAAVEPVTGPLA

[3] = target: histidine ammonia lyase isolated from Achromobacter liquidum; conditions: Shibatani et al. 1975; cited from earlier work
[4] = system: Respiratory Syncytial Virus (RSV); assay: RSV plaque assay in Hep2 cells; assay type: cell-based; conditions: L-histidinol 3 mM
Method: Another successful study has been with Respiratory Syncytial Virus (RSV). RSV is another highly infectious disease causing agent. It causes lower respiratory-tract infections such as bronchitis and pneumonia in infancy and early childhood, with nearly 50% of infants suffering from an RSV infection during their first winter. Experiments were performed in tissue culture using the RSV Plaque Assay. The RSV plaque assay is performed similarly to the HSV assay. When performing the RSV assay Hep2 cells are used to propagate the RSV and the cells are grown in EMEM media with 2% FBS, L-glutamine and Antibiotic-Antimycotic. The virus stock is diluted in the medium and added to each well with or without the desired testing compound. The plates are incubated for 2 hours at 37° C. and the virus is removed. 0.5% agarose is added to the media and incubated for 5 days at 37° C. The plates are then fixed with 10% formalin and stained with crystal violet.

[5] = target: T1, Streptomyces griseus histidine ammonia lyase; assay: Inhibition of Streptomyces griseus histidine ammonia lyase; assay type: biochemical; conditions: equal molar concentration to histidine
Excerpt: HAL has a significant advantage over other histidine ammonia lyases in that it is relatively resistant to inhibition by L-histidinol. L-histidinol is a histidine analog. Because L-histidinol acts as a competitive inhibitor it must be present in high concentrations to have an effect on histidine dependent reactions. Using HAL to reduce the overall histidine pool would therefore greatly increase the effectiveness of L-histidinol. […] Because the Corynebacteriaceae histidine ammonia lyase (HAL) is not inhibited by L-histidinol at therapeutic L-histidinol levels it has a great advantage over other histidine ammonia lyases. […] However, with HAL 20% of activity still is retained when L-histidinol is present at 10 times the concentration of L-histidine.

[6] = system: Herpes Simplex Virus (HSV); assay: HSV plaque assay in VERO cells; assay type: cell-based
Method: HAL was tested for its anti-viral activity against a variety of infectious viruses in vitro. Effectiveness against Herpes Simplex Virus (HSV) was assayed using the following method. Confluent VERO cells from a T-175 flask are tyrpsinized and split into as many T-25 flasks as the experiment requires. The cells are grown in RPMI-1640 with 10% newborn calf serum-heat inactivated, and L-glutamine. After cells have grown to confluence remove the media and add 0.5 ml of diluted virus (make a series of 1:5 dilution). Dilution of virus is prepared in RPMI-1640 with 2% NCS. The cells are then incubated for 1 hour at 37° C. and then 5 ml of RPMI-1640 with 2% NCS with or without the test compounds is added and incubation is allowed to continue for 1 day. After 24 hours the flasks are sealed with parafilm and frozen at −70° C. The cells are then allowed to thaw at RT to lyse dead intact cells, releasing virus. The viral suspension is then centrifuged to remove cell debris. The viral dilution that caused complete lysis will be used in the plaque assay. The plaque assay is set up by trypsinizing cells from a T-75 and resuspending the cells in RPMI-1640 with 10% NCS and poured into 6-well plate at 2 ml/well. The cells are incubated overnight at 37° C. The media is then removed by suction and 0.2 ml of the viral dilution is added and allowed to incubate for one hour. During this hour the agar is prepared and stored at 41° C. to prevent hardening. The agar concentrations are as follows: ½ vol. 2×BME (Gibco), 2% Pen/Strep, 2% NCS, and 1% agar. After the hour incubation 2 ml of the BME/agar is carefully added to the wells, so as not to disturb the cell monolayer. The plate is left at RT for twenty to thirty minutes to allow the agar to harden, and then the cells are incubated for 48 hours at 37° C. The cells are then stained used BME/agar containing neutral red. The BME/agar is prepared as before with the addition of neutral red stain (Gibco) to a final concentration of 5%. […] Plaques are then counted and the cells fixed for a permanent record.

Molecule: O=C(O)CN(CCN(CC(=O)O)CC(=O)O)CC(=O)O [EDTA]
- inhibition of the HAL reaction ([1]; concentrations as low as 1 mM): completely inhibit
- reversibility of the inhibition ([1]; presence of Mn^2+ at 1×10^5 M): reversible

Molecule: L-histidinol phosphate
- Ki [2]: 0.27 mM

Molecule: O[C@@H](CS)[C@@H](O)CS [DTT]
- IC50 [1]: 15 mM

Molecule: N[C@@H](CCC(=O)N[C@@H](CS)C(=O)NCC(=O)O)C(=O)O [reduced glutathione]
- IC50 [1]: 15 mM

Molecule: N[C@H](CO)Cc1c[nH]cn1 [L-histidinol]
- Ki [3]: 4.58 mM
- Ki [1]: 24.3 to 33.4 mM
- inhibition of HAL ([1]; therapeutic L-histidinol levels): not inhibited
- inhibition of RSV plaque numbers [4]: no inhibition
- inhibition of the enzyme [5]: completely inhibit
- inhibition of HSV ([6]; L-histidinol 0.1 mM): no inhibition
- inhibition of HSV ([6]; L-histidinol 0.5 mM): no inhibition
- inhibition of HSV ([6]; L-histidinol 1 mM): 5 fold
